This is an account of results in paper PMC9057948, “Identification, isolation, structural characterization, in silico toxicity prediction and in vitro cytotoxicity assay of simeprevir acidic and oxidative degradation products” (RSC Advances, 2020).

The subject of series [1] is Human Skin Fibroblast (HSF) cell line. Kind of series: SRB cytotoxicity (cell viability) assay. Type of series: cell-based. As to conditions: Homo sapiens; HSF cells, SRB assay, 72 h exposure, 0.01–100 μM. The procedure:
(§1) Human Skin Fibroblast cell line was obtained from Nawah Scientific Inc., (Mokatam, Cairo, Egypt). Cells were maintained in DMEM media supplemented with […] of streptomycin, 100 units per mL of penicillin and 10% of heat-inactivated fetal bovine serum in humidified, 5% (v/v) CO2 atmosphere at 37 °C.
(§2) Absorbance was measured in the cytotoxicity assay at 540 nm on a BMG LABTECH®-FLUOstar Omega microplate reader (Ortenberg, Germany).
(§3) Cell viability was assessed by SRB assay.[25] Aliquots of 100 μL cell suspension (5 × 10^3 cells) were in 96-well plates and incubated in complete media for 24 h. Cells were treated with another aliquot of 100 μL media containing (DP 1, DP 2, DP 3, DP 4, DP 5 and Doxorubicin as positive control) at various concentrations ranging from (0.01, 0.1, 1, 10, 100 μm). After 72 h of drug exposure, cells were fixed by replacing media with 150 μL of 10% TCA and incubated at 4 °C for 1 h. The TCA solution was removed, and the cells were washed 5 times with distilled water. Aliquots of 70 μL SRB solution (0.4% w/v) were added and incubated in a dark place at room temperature for 10 min. Plates were washed 3 times with 1% acetic acid and allowed to air-dry overnight. Then, 150 μL of Tris (10 mM) was added to dissolve protein-bound SRB stain; the absorbance was measured at 540 nm using microplate reader. The percentage of cell viability was calculated by using the following formula:[26] [drawing 1]
(§4) Cytotoxicity assay was carried out to confirm the in silico toxicity prediction study results. As an in vitro method to monitor the potential toxicity and/or safety of simeprevir and its degradation products (DP 1, DP 2, DP 3, DP 4 and DP 5), against Human Skin Fibroblast (HSF) cell line. SRB assay was used to assess the effect of these compounds on the viability and proliferation of HSF cell line (Table S1 ^†), in addition to taking images using the optical microscope to register any change on the tested cells.
(§5) The percentage of cell viability was measured at five different concentrations (0.01, 0.1, 1, 10 and 100 μM) in comparison with doxorubicin as a standard drug (positive control) which is monitored at the same concentration range after incubation for 72 h period.
(In general: In SRB staining, fixed cells bind dye roughly in proportion to their protein.)

A short description of series [2]: SRB cytotoxicity (cell viability) assay. Type of series: cell-based, Human. As to conditions: human, Human Skin Fibroblast (HSF) cells; for viability at 72 h, 0.01 µM / viability at 72 h, 0.1 µM / viability at 72 h, 1 µM / viability at 72 h, 10 µM: n = 3. The procedure: as §1, §2, §3, §4, §5
In series [3] the test system is Human Skin Fibroblast (HSF) cell line. Put plainly: Optical microscope stained images of the cytotoxicity assay. Type of series: cell-based. As to conditions: HSF cells, magnification 200×. The protocol:
as §4
The optical microscope stained images were recorded as shown in Fig. 7 comparing the cytotoxic effect of the five degradation products with that of doxorubicin at a concentration of 100 μM. […] This proves that simeprevir acidic and oxidative degradation products are non-toxic up to 100 μM (IC50 > 100 μM).

A short description of series [4]: Forced degradation study (stress degradation, HPLC). Type of series: physicochemical. The procedure:
The forced degradation studies were carried out on 1 mg mL^−1 in methanol. Acidic hydrolysis was performed by treating the drug with 0.5 M hydrochloric acid for 5 hours, while the basic hydrolysis conditions were 1 M sodium hydroxide for 5 hours. In both cases, the reaction was immersed in a boiling water bath maintained at 100 °C.
Oxidative degradation was performed by treating the drug with 3% hydrogen peroxide for 5 hours and the reaction was immersed in a boiling water bath maintained at 100 °C. In the thermal degradation, simeprevir was subjected to high temperature by placing the drug in a thermostatic oven at 100 °C.
The samples from the acidic and basic hydrolysis stress tests were neutralized and diluted with methanol to achieve final assay concentrations of 100 μg mL^−1. The final sample solutions were filtered through a 0.45 μm membrane before HPLC analysis. All sample solutions were stored at 4 °C in a refrigerator to avoid degradation.
Although, previous reports by Attia et al.[18] and Mohammed et al.[27] uses different basic hydrolysis conditions; 0.1 N NaOH for 3 hours at room temperature and 1 M NaOH for 2 hours at 60 °C; respectively. […] In our report, no peak was observed after HPLC injection of the alkaline degradation samples which is confirmed using TLC and Flash Chromatography; in which only drug peak was detected.

For series [5] the following is noted: no reference given; cited from earlier work.
For series [6] the following is noted: cited from earlier work.
[7] abbreviates: 72 h, n = 3, read-out: Viability % (Mean).

SMILES strings stand for the structures. Where two headings read alike, the source gives them in different places.

What is called IC50 is the concentration needed to halve the response being measured. As usually defined, the viability is a per cent measure of how many cells are alive, often set against a control. `COc1ccc2ccc(-c3scc(C(C)C)[n+]3[O-])[n+]([O-])c2c1CO` [DP 4] displayed an IC50 in series [1] of more than 100 µM. In series [2] (72 h), this compound showed a viability at 72 h, 0.01 µM of 96.1%; a viability at 72 h, 0.1 µM of 93.9%; a viability at 72 h, 1 µM of 93.1%; a viability at 72 h, 10 µM of 92.1%. Further, the viability at 72 h, 100 µM in series [2] (setting [7]) is 92.7%.

In the case of `COc1cccc2c1C(=O)c1c(O)c3c(c(O)c1C2=O)C[C@@](O)(C(=O)CO)C[C@@H]3O[C@H]1C[C@H](N)[C@H](O)[C@H](C)O1` [Doxorubicin, reference compound], the morphological changes result in series [3] (0.1 μM) was “no occurrence of morphological changes”. In series [1], this compound came in with an IC50 of 1.4 µM. In series [2] (72 h), the viability at 72 h, 0.01 µM was 99.5%; the viability at 72 h, 0.1 µM came out at 98.4%; the viability at 72 h, 1 µM came out at 59.9%; the viability at 72 h, 10 µM turned out to be 15.5%. Moreover, the viability at 72 h, 100 µM in series [2] (setting [7]) is 3.29%.

As to `COc1ccc2c(OC3C[C@H]4C(=O)OC(=O)[C@@H]4C3)cc(-c3nc(C(C)C)cs3)nc2c1C` [DP 1], the IC50 in series [1] was more than 100 µM. Moreover, in series [2] (72 h), the viability at 72 h, 0.01 µM came out at 98.7%; the viability at 72 h, 0.1 µM amounted to 96.5%; the viability at 72 h, 1 µM is 95.6%; the viability at 72 h, 10 µM was 95.2%. In series [2] (setting [7]), the viability at 72 h, 100 µM came out at 92.9%.

As usually defined, the pKa is the pH at which an ionisable group is half protonated. `COc1ccc2c(O[C@@H]3C[C@H]4C(=O)N[C@]5(C(=O)NS(=O)(=O)C6CC6)C[C@H]5/C=C\CCCCN(C)C(=O)[C@@H]4C3)cc(-c3nc(C(C)C)cs3)nc2c1C` [Simeprevir]: the “% Degradation, acidic degradation” value in series [4] (0.5 M HCl at 100 °C, 5 hours) is recorded as 26.63%. Also, the “% Degradation, alkaline degradation” value in series [4] (1 M NaOH at 100 °C, 5 hours) is given as “No degradation”. Moreover, the “% Degradation, oxidative degradation” value in series [4] (3% w/v H2O2 at 100 °C, 5 hours) is 21.87%. Besides, in series [4] (Oven at 100 °C, 10 hours), the “% Degradation, thermal degradation” value is recorded as “No degradation”. Moreover, the pKa in series [5] was 5.9. The “degradation percentage, basic hydrolysis” value was 35.55% in series [6] (0.1 N NaOH for 3 hours at room temperature, ref 18 (Attia et al.)) and 39.80% in series [6] (1 M NaOH for 2 hours at 60 °C, ref 27 (Mohammed et al.)).

`COc1ccc2c(OC3CC4C(=O)NC5CC5C=CCCCCN(C)C(=O)C4C3)cc(-c3nc(C(C)C)cs3)nc2c1C` (stereo not shown) [DP 2] returned an IC50 in series [1] of more than 100 µM. Further, in series [2] (72 h), the viability at 72 h, 0.01 µM stood at 98.5%; the viability at 72 h, 0.1 µM came out at 98.5%; the viability at 72 h, 1 µM came out at 97.4%; the viability at 72 h, 10 µM worked out at 97.1%. For the same compound, in series [2] (setting [7]), the viability at 72 h, 100 µM amounted to 95.6%.

In series [1], `COc1ccc2ccc(-c3scc(C(C)C)[n+]3[O-])[n+]([O-])c2c1C` [DP 5] displayed an IC50 of more than 100 µM. In series [2] (72 h), this compound came in with a viability at 72 h, 0.01 µM of 96.3%; a viability at 72 h, 0.1 µM of 96.8%; a viability at 72 h, 1 µM of 93.7%; a viability at 72 h, 10 µM of 93%. Also, the viability at 72 h, 100 µM in series [2] (setting [7]) was determined as 92.5%.

Turning to `CN1CCCCC=CC2CC2(C(=O)NS(=O)(=O)C2CC2)NC(=O)C2CC(O)CC2C1=O` (stereo not shown) [DP 3], the morphological changes entry in series [3] (100 μM) is on record as “slight changes”. Moreover, the IC50 in series [1] was more than 100 µM. In series [2] (72 h), this compound returned a viability at 72 h, 0.01 µM of 97.7%; a viability at 72 h, 0.1 µM of 97.6%; a viability at 72 h, 1 µM of 93.4%; a viability at 72 h, 10 µM of 91.1%. Moreover, the viability at 72 h, 100 µM in series [2] (setting [7]) came to 90.9%. The viability at 72 h, 100 µM in series [2] (single replicate, read-out: cell viability in one of the replicates) came out at 89.9%.
